Measurements taken from patent US20210255184A1, “Biosensor Device and Methods” (The New Zealand Institute for Plant and Food Research …, priority 2018, published 2021).

Molecular target: T1, Or10a/Orco (Drosophila melanogaster, UniProt Q9VYZ1)
T1 construct: his-tag; made in house; host or cells: baculovirus-infected Sf9 cells
T1 sequence (Q9VYZ1 1-406): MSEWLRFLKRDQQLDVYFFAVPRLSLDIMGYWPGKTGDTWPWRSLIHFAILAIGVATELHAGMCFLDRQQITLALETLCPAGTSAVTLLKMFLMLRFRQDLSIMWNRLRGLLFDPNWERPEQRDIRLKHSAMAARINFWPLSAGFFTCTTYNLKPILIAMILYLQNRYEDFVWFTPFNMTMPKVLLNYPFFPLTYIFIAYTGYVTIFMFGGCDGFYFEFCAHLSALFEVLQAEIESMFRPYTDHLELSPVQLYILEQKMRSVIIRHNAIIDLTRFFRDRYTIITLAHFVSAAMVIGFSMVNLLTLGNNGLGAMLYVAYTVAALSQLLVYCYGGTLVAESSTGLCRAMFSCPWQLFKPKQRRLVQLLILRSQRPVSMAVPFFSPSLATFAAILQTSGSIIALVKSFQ
T1 sequence (Q9VNB5 1-486 partner): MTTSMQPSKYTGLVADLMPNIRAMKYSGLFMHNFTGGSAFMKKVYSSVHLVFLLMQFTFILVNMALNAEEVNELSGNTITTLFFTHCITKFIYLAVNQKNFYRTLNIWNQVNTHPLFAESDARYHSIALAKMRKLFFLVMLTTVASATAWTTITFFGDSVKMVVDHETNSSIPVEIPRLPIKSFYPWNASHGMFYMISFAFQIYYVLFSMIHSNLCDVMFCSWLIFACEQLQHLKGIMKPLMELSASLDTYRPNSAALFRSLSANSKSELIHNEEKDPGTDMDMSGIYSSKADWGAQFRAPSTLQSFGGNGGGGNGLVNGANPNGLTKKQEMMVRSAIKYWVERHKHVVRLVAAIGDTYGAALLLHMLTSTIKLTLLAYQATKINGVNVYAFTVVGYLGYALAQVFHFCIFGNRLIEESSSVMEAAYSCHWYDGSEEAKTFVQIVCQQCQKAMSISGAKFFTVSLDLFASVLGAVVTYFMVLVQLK
Experiment: EIS sensor, Or10a/Orco liposomes on gold electrode
Type: biochemical
Protocol: Prior to their use, liposomes were defrosted on ice and then destabilized by incubating with 0.2% CHAPS for 15 min at room temperature. Then 200 μg of purified odorant receptor^28 was added to 1 mg of liposomes and rotated at 10 rpm for 1 h at room temperature. Excess detergent was removed by four additions of 25 mg of Bio-Beads SM-2 (Bio-Rad, USA) and incubation at 4° C. for 30 min, 2 h, overnight and a further 2 h respectively. The Bio-Beads were removed after each incubation period. The OrX or OrX/Orco integrated liposomes were pelleted by centrifugation at 100,000 g for 1 h, and were resuspended in 500 μL of rehydration buffer. Integration of OrXs and Orco into liposomes was assessed by density gradient ultracentrifugation (DGU) using Accudenz (Accurate Chemical & Scientific Corporation, USA). The integrated liposomes were brought to 40% Accudenz by the addition of an equal volume of 80% Accudenz solution, placed at the bottom of an ultra-centrifugation tube, and overlaid with 30% Accudenz solution, and DGU buffer (25 mM HEPES pH 7.5, 100 mM NaCl, 10% glycerol). The sample was then centrifuged at 100,000 g for 4 h at 4° C. Liposomes will float to the top of the gradient after Accudenz DGU due to their low density.
2 mM MHA was prepared by dissolving 1.36 μl of MHA in 5 ml ethanol (AR grade). The cleaned electrodes were immersed into MHA solution and incubated overnight. The next day, all the electrodes were washed with ethanol and deionised water thoroughly in order to remove the unreacted acid. A 2:1 mol:mol ratio of EDC:NHS (100 mM EDC, 50 mM NHS) was prepared in 2 ml PBS (pH=6.5) solution. Then, the electrodes were covered in 100 μl of this solution at 28° C. for an hour to activate the carboxylic (COOH) groups of the MHA.
PBS solution was prepared by immersing one tablet of PBS in 200 ml of milli-Q water (according to manufacturers instructions) and filtered using 0.2-μm syringe filter. The pH of the prepared buffer solution was measured with a pH meter. OrX liposomes or OrX/Orco liposomes were diluted 100 fold in PBS buffer solution (pH=7.4) and the COOH-activated electrodes were incubated in that buffer solution at room temperature for one hour. Then, the electrodes were washed extensively with PBS buffer solution to wash out any unbound liposomes.
PBS (pH=7.4) was used as an electrolyte to conduct electrochemical measurements. PBS buffer was degassed for about 30 minutes prior to electrochemical measurements. […] OR immobilized electrodes were incubated in relevant odorant solution for ˜30 minutes each and washed gently with PBS before EIS measurements. […]

In the case of `COC(=O)c1ccccc1O` [methyl salicylate], the limit of detection (EIS dose response, ligand 1 aM to 100 μM) is reported as 1 fM, the EC50 (Table 1, approximate) is reported as ~1 pM and the Sensitivity limit (Table 1, * estimated visually from dose response graph) is reported as ~10^−15 M*. The “Detection Range” value (Table 3) was 10^−15-10^−7 M.
